Consider 1 molecule from article PMC7391726, “Fatty acid mimetic PBI-4547 restores metabolic homeostasis via GPR84 in mice with non-alcoholic fatty liver disease” (Scientific Reports, 2020).

For one assay, the system named is standard diet-fed mice. The experiment in a line: Standard diet-fed mice. Type of assay: in vivo, mouse. The source says: The well-established high-fat diet (HFD) mouse model of obesity was used to study the impact of PBI-4547 on the onset and progression of NAFLD. A 14-week HFD regimen led to significant weight gain in both male and female mice. […] Moreover, PBI-4547 decreased serum triglycerides while enhancing adiponectin levels. […] Of note, the effects of PBI-4547 on bodyweight, food consumption, glucose tolerance, fasting blood glucose, insulin resistance and HOMA-β indices were absent in standard diet-fed mice (Table S1).
(§1) WT or Gpr84^−/− mice, as previously described, (aged 10–14 weeks at the beginning of the experiment) were either fed a standard diet (STD) or a high-fat diet (HFD) (Envigo #TD.06414) for 14 weeks. At this point, mice were administered either vehicle (water) or PBI-4547 (10 mg/kg) on a daily basis for 6 (WT study) or 8 (WT vs KO study) weeks by gastric gavage, and were sacrificed thereafter. Liver and WAT tissues were fixed in 10% formalin for histological analyses or flash frozen in liquid nitrogen for RT-PCR analyses. All animal studies were reviewed and approved by the animal care and use committee of the Institut National de la Recherche Scientifique – Armand-Frappier (Laval, QC, Canada) and the University of Ottawa’s Animal Care and Veterinary Services (Ottawa, ON, Canada). Protocols were approved and undertaken according to the Canadian Council on Animal Care guidelines.

The target of another assay is T1, GPR84 (Homo sapiens, UniProt Q9NQS5).
T1 construct: expressed in transfected cells; host or cells: HEK293
The experiment in a line: BRET Gαi2 activation biosensor in HEK293 cells transfected with GPR84. Type of assay: cell-based. The text has this:
PBI-4547 (2-[3,5-dipentylphenyl]acetate sodium salt) is a medium-chain FA (MCFA) mimetic (Fig. 1A). Accordingly, we examined the signaling properties of PBI-4547 on receptors known to be activated by MCFAs. […] This biosensor consisted of an Rluc8-tagged Gαi2 subunit, a GFP10-tagged Gγ2 subunit, and an untagged Gβ1. Agonist stimulation and receptor activation triggers a physical separation between the Gα-Rluc8 donor and the GFP10-Gγ2 acceptor, resulting in a decrease in BRET signal, whose amplitude is correlated to ligand efficacy. […] (A) Chemical structure of PBI-4547. (B) Gi pathway activation was monitored in HEK293 cells transfected with GPR84 and the Gαi2 activation biosensor. […] (C) β-arrestin 2 recruitment to activated GPR120 receptor was monitored in HEK293 cells transfected with RLuc8-β-arrestin 2 and GPR120-GFP10. (D) Cells transfected with GPR40 and Gαq or Gαi2 activation biosensor were exposed to increasing concentrations of PBI-4547 or to 500 µM of sodium decanoate, and BRET variation compared with vehicle was measured. Cells were exposed to increasing concentrations of PBI-4547 or to 100 µM of GW9508, and BRET variation compared with vehicle was measured. (E) LanthaScreen TR-FRET competitive binding assay of PBI-4547 and PPAR control agonists to the LBD of PPARα, PPARδ and PPARγ. (F) Cell-based GAL4 transactivation assay in HEK293 cells transfected with the LBD of PPARα, PPARδ or PPARγ, and treated with increasing concentrations of PBI-4547 or PPAR control agonists. Data in (B–D) are expressed as means ± SEM of 4–5 experiments; data in (E,F) are from a representative experiment from a total of 3 to 4 independent experiments. BRET measurements in transiently transfected HEK293 cells were performed as previously described. Ligands were incubated with cells at room temperature for 10 min (G protein biosensors) or 25 min (β-arrestin/GPR120) before collecting BRET[2] readings between Rluc8 and GFP10.
(Bioluminescence resonance energy transfer reports proximity on the nanometre scale.)

Another assay concerns HFD-fed Gpr84−/− mice. Put plainly: High-fat diet (HFD) mouse model, Gpr84−/− mice. The format is in vivo. On the procedure:
Based on PBI-4547’s pharmacological profile and binding activities, we next used Gpr84^−/− mice fed a HFD to investigate the role of GPR84 in mediating the protective effects of PBI-4547 on glucose and FA metabolism.
as §1
Oral glucose tolerance tests (OGTT) were completed 6 weeks after beginning of the treatments. Briefly, mice were fasted for 4–6 h, given a bolus of glucose at […] BW orally, and blood glucose values measured at 0, 15, 30, 60, 120 min. In parallel, a blood sample was obtained at 0, 15, 60 and 120 min for insulin quantification by ELISA (EMD Millipore).
After fixation in formalin, iWAT (inguinal), eWAT (epididymal) and liver sections were embedded in paraffin. Thin section of […] were stained with Hematoxylin and Eosin or Sirius red for analyses. WAT collagen deposition and liver characteristics of NAFLD were quantified histologically by a pathologist (R.C.) in a double-blinded manner. Liver histology was performed on H&E stained slides. WAT collagen deposition was scored using Picro Sirius-Red stained slides. Immunofluorescence-detection of α-SMA in liver sections was performed. Briefly, samples were deparaffinized in a series of xylenes, rehydrated in graded alcohols followed by an antigen-unmasking step by microwaving in Tris-buffer (pH 8.2). Sections were blocked with 10% donkey serum (Vector labs), 1% bovine serum albumin (Sigma) in PBS + 1%Tween for 1 h at room temperature. Slides were incubated overnight at 4 °C with an anti-mouse smooth muscle α-Actin antibody (1:300; Santa Cruz, clone #1A4). Secondary detection was performed using a donkey anti-mouse Alexa Fluor 594 (1:500; Molecular Probes), incubated for 1 h at room temperature. Slides were dehydrated and mounted with fluorescent antifade media containing DAPI (Vector labs). Images were taken at 100X and 200X magnification and representative images are shown.
RNA was extracted and purified as previously described. Real-time quantitative PCR was performed on a CFX96 Touch Real-Time PCR Detection System (Bio-Rad) using TaqMan gene expression assays (Fisher Scientific). qPCR data were analyzed using the 2-^ΔΔCt method, using Gapdh and Hprt as endogenous control. RT-qPCR data were reported as Geometric means ± SEM.

Where [1] appears, read: WT vs KO study, HFD-fed Gpr84−/−.

T1 sequence (Q9NQS5 whole entry, species assumed): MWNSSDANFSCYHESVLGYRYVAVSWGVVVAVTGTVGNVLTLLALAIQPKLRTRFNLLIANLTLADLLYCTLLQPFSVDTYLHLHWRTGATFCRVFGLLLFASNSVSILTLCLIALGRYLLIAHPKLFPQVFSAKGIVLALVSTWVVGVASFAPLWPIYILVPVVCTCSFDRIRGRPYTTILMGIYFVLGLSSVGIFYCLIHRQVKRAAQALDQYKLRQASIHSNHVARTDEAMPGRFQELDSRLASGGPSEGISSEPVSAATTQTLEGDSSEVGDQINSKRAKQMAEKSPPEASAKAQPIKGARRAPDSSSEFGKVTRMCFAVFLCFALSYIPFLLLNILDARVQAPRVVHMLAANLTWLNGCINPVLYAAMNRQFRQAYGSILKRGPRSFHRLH

With `CCCCCc1cc(CCCCC)cc(CC(=O)[O-])c1.[Na+]` [PBI-4547, 2-[3,5-dipentylphenyl]acetate sodium salt], in the assay on standard diet-fed mice, the “effects on bodyweight, food consumption, glucose tolerance, fasting blood glucose, insulin resistance and HOMA-β indices” value is “absent”. For the same molecule, the IC50 at GPR84 (co-treated with 125 mM sodium decanoate and increasing concentrations of PBI-4547, read-out: IC50, inhibition of GPR84/Gαi2 activation) was 17 µM. The “GPR84/Gαi2-mediated BRET signal modulation (agonist mode)” value at GPR84 (compound alone vs vehicle) was “did not lead to GPR84/Gαi2-mediated BRET signal modulation”. Besides, in the assay on HFD-fed Gpr84−/− mice (HFD-fed GPR84−/− mice), the “immunodetectable α-SMA in liver” value is “further decreased”. In addition, the “impact on hepatic steatosis” value with HFD-fed Gpr84−/− mice (HFD-fed Gpr84−/− (KO) mice) was “protective effect was lost”. The “expression of hepatic genes previously found regulated by PBI-4547 in WT mice” value in the assay on HFD-fed Gpr84−/− mice (HFD-fed Gpr84−/− mice, qRT-PCR) is “no longer modulated”. In the assay on HFD-fed Gpr84−/− mice (setting [1]), the “WAT mean adipocyte diameters and area” value was “remained unchanged”; the “fasting blood glucose levels” value is “only in WT mice”; the serum adiponectin result was “upregulated”; the serum cholesterol levels entry is given as “remained unchanged”. Besides, the serum triglyceride levels result in the assay on HFD-fed Gpr84−/− mice (setting [1]) is listed as “only in WT mice”. The OGTT entry in the assay on HFD-fed Gpr84−/− mice (WT vs KO study, HFD-fed Gpr84−/−, after 6 weeks) is recorded as “only had a significant effect on OGTT in WT mice”. Besides, the “modulatory effect on pro-inflammatory and pro-fibrotic markers in WAT” value in the assay with HFD-fed Gpr84−/− mice (mice lacking the GPR84 receptor) was “absent”.
